In patent US7816325B2, “Secondary binding site of dipeptidyl peptidase IV (DP IV)” (OSI Pharmaceuticals, Inc., priority 2003, dated 2010):
Where two headings read alike, the source gives them in different places. Where a SMILES comes first, the peptide text is derived from it. [ ]: non-standard residue; d: D form. The star is where a group is joined. AMC = Cc1cc(=O)oc2cc(N*)ccc12

Assays:
DP IV [1] = test: DP IV-catalyzed hydrolysis, determination of Km; assay type: biochemical
[2] = target: T1, recombinant human DP IV, wild type (Homo sapiens, UniProt P27487); test: Ki in competition to standard substrate GP-4NA; assay type: biochemical; conditions: rh wt DP IV, competition to GP-4NA
T1 construct: His6 (N); made in house; host or cells: Pichia pastoris X-33 (vector pPICαC, secreted into the medium)
Procedure: (§1) In order to measure the inhibition constant Ki a photometric assay was used The peptides were measured as competitors of the standard substrate GP-4-Nitroanilide. Three different substrate concentrations (0.4 mM to 0.05 mM) were combined with 8 different competitor concentrations (0.5 mM to 2 μM). […] Experiments were carried out under standard conditions: 30° C. in pH 7.6 40 mM HEPES (Sigma-Aldrich) buffer. Nitroaniline production was monitored using a HTS 7000+ microplate reader (PerkinElmer, Überlingen, Germany).

[3] = target: T2, recombinant human DP IV, mutation W629A (Homo sapiens, UniProt P27487, W629A); test: Ki in competition to standard substrate GP-4NA; assay type: biochemical; parameters: His6 (N); made in house; host or cells: Pichia pastoris X-33 (vector pPICαC, secreted); conditions: mu 16 DP IV (W629A), competition to GP-4NA
Procedure: as §1

[4] = target: T3, recombinant human DP IV, mutation R560A (Homo sapiens, UniProt P27487, R560A); test: Ki in competition to standard substrate GP-4NA; assay type: biochemical; parameters: His6 (N); made in house; host or cells: Pichia pastoris X-33 (vector pPICαC, secreted); conditions: mu 15 DP IV (R560A), competition to GP-4NA
Procedure: as §1

DP IV [5] = test: Photometric Ki assay, competition with standard substrate GP-4-Nitroanilide; assay type: biochemical; conditions: read-out: Ki, influence on GP-4-Nitroanilide hydrolysis
Procedure: (§2) In order to measure the inhibition constant Ki a photometric assay was used The peptides were measured as competitors of the standard substrate GP-4-Nitroanilide. Three different substrate concentrations (0.4 mM to 0.05 mM) were combined with 8 different competitor concentrations (0.5 mM to 2 μM). The reaction was started by addition of 3.5 nM DP IV. Experiments were carried out under standard conditions: 30° C. in pH 7.6 40 mM HEPES (Sigma-Aldrich) buffer. Nitroaniline production was monitored using a HTS 7000+ microplate reader (PerkinElmer, Überlingen, Germany). The Ki-values were calculated via non-linear regression using the enzyme kinetic program Grafit 4.016 (Erithacus Ltd, UK).
For a reversible competitive inhibition is to assumed: […]

[6] = Stability in biological fluids (human serum or plasma)
DP IV [7] = test: DP IV-catalyzed peptide truncation test with or without preincubation with effector peptide; assay type: biochemical; conditions: for affinity of larger oligopeptides such as GIP, VIP, glucagon / binding and hydrolysis of small dipeptide substrates: DP IV preincubated with the peptide
Procedure: (§3) 250 single laser-shot spectra were accumulated.
In order to investigate directly the influence of the test compounds TFTSDY, TFTDDY and H-Ser-D-Glu-Thr-Gly-D-Val-D-Lys-D-Val-OH on the DP IV-catalyzed peptide hydrolysis the MALDI-TOF assay was used.
As described before (determination of t1/2) DP IV and the test compounds were preincubated and the reaction was started by adding the enzyme/hexapeptide mixture to substrate/buffer mix. The control reaction mixture consisted of buffer, enzyme and substrate. From the curves of the first order exponential the initial rate (vi) for the control and the reversible inhibited reaction was calculated.

DP IV [8] = test: DP IV-catalyzed truncation of peptides, half-life by MALDI-TOF MS; assay type: biochemical; conditions: for hydrolysis by DP IV: GIP-fragments of different chain lengths
Procedure: (§4) In particular, the capability of purified DP IV from human, from porcine kidney, of recombinant human DP IV and the DP IV activity of the human serum to truncate the peptides of the GRF family were analyzed.
as §3

[9] = target: T1, recombinant human DP IV, wild type; test: Kinetic characterization of substrate hydrolysis (Km, kcat); assay type: biochemical; conditions: rh wt DP IV
[10] = target: T2, recombinant human DP IV, mutation W629A; test: as above; conditions: mu 16 DP IV (W629A)
[11] = target: T3, recombinant human DP IV, mutation R560A; test: as above; conditions: mu 15 DP IV (R560A)
[12] = DP IV-catalyzed truncation of peptides, half-life by MALDI-TOF MS; assay type: biochemical
Procedure: as §4, §3

[13] = target: T4, porcine kidney DP IV, wild type (Sus scrofa, UniProt P22411); test: Kinetic characterization of substrate hydrolysis (Km); assay type: biochemical; conditions: p wt DP IV
T4 construct: the DP IV-protein was released from the membrane by an 18 h autolysis step at 30° C; from tissue; host or cells: porcine kidney cortex

[14] = target: T4, porcine kidney DP IV, wild type; test: Ki in competition to standard substrate GP-4NA; assay type: biochemical; conditions: p wt DP IV; competition to GP-4NA
Procedure: as §2

[15] = preincubation with 160 μM TFTSDY

T3 sequence (P27487 37-766 R560A): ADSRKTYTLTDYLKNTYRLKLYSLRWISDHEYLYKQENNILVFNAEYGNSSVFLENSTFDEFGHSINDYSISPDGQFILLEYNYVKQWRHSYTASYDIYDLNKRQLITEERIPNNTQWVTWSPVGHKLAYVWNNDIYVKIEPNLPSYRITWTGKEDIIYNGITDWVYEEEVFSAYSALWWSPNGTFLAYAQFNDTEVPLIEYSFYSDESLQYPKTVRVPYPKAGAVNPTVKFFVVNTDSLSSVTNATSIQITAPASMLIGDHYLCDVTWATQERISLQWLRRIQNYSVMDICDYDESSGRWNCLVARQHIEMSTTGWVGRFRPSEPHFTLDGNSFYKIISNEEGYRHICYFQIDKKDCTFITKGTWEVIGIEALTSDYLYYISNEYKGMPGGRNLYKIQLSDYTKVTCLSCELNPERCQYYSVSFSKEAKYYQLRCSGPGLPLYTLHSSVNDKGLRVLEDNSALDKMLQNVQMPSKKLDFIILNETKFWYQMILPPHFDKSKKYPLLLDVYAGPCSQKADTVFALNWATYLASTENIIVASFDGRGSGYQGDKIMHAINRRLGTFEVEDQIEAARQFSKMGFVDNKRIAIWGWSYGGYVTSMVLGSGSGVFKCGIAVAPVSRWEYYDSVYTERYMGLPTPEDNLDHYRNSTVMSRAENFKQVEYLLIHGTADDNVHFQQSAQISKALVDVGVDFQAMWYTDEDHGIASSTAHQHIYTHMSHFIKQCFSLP
T1 sequence (P27487 37-766): as the sequence (P27487 37-766 R560A) above, with A524R counted along it
T2 sequence (P27487 37-766 W629A): as the sequence (P27487 37-766 R560A) above, with A524R, W593A counted along it
T4 sequence (P22411 38-766 limits assumed): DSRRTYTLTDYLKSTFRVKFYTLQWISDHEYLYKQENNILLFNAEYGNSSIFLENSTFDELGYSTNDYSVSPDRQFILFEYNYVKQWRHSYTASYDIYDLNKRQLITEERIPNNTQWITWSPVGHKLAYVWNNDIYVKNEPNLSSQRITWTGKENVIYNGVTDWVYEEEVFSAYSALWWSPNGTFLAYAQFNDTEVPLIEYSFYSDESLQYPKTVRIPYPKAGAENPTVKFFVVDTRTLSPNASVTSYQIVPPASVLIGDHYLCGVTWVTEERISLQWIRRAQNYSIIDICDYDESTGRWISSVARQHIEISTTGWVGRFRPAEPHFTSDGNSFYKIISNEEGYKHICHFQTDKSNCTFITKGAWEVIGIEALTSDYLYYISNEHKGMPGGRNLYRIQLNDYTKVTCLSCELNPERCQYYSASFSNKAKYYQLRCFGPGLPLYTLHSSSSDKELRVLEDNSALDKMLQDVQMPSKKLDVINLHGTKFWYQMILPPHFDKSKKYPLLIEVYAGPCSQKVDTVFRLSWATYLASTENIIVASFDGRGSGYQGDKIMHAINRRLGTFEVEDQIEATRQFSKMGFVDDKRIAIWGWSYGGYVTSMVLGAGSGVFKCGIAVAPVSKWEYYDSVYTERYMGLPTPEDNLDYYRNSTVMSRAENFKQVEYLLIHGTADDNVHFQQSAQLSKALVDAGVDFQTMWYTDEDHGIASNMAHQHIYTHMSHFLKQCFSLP

`Cc1cc(=O)oc2cc(NC(=O)CNC(=O)[C@@H](N)Cc3c[nH]cn3)ccc12` [His-Gly-AMC] (H-His-Gly-{AMC}) gave a Km (DP IV [1]) of 410 µM.
With `C[C@@H](O)[C@H](N)C(=O)N[C@@H](Cc1ccccc1)C(=O)N[C@H](C(=O)N[C@@H](CO)C(=O)N[C@@H](CC(=O)O)C(=O)N[C@@H](Cc1ccc(O)cc1)C(=O)O)[C@@H](C)O` [TFTSDY] (H-TFTSDY-OH; N-terminus and C-terminus assumed) the Ki [2] was “no inhibition”, the Ki [3] was “no inhibition” and the Ki [4] was “no inhibition”. The Ki (DP IV [5]) was 710000 nM, the “stability in biological fluids” value [6] was “instable” and the “half-lifes of GIP, Glucagon, PACAP-27 and PACAP-38” value (DP IV [7]; DP IV (porcine and recombinant human) catalyzed peptide truncation test, FIG. 16) was “prolongation”. The “affinity of larger oligopeptides such as GIP, VIP, glucagon” value (DP IV [7]) was “considerably reduced”, the “binding and hydrolysis of small dipeptide substrates” value (DP IV [7]) was “only slightly influenced” and the “half-lives of GIP and glucagon in presence of DP IV” value (DP IV [7]; [15]) was “prolonged”. For the same molecule, the “incubation of Rantes1-15 and DP IV with or without the hexapeptide” value (DP IV [7]; [15]) was “No differences”.
For V^2GIP1-6: GIP-fragment analog (YAEGTF), the Truncation half life (DP IV [8]) was “no degradation” and the “hydrolysis by DP IV” value (DP IV [8]) was “not hydrolyzed”.
For “His^1-Ser^2-NPY: NPY analog, full-length substrate”, the Km (DP IV [1]) was 68 µM.
In the case of “V^2GIP(1-4): GIP-fragment analog, test compound of Table 5 (YAEGTF)”, the Ki [2] is reported as “no inhibition”, the Ki [3] is reported as “no inhibition” and the Ki [4] is reported as “no inhibition”.
Work on `Cc1cc(=O)oc2cc(NC(=O)[C@@H]3CCCN3C(=O)CN)ccc12` [Gly-Pro-AMC, H-Gly-Pro-AMC] (H-Gly-Pro-{AMC}) yielded a Km [9] of 35.3 µM, a kcat [9] of 1.66e+06 s⁻¹ and a Km [10] of 50.2 µM. For the same molecule, the kcat [10] was 1.44e+06 s⁻¹, the Km [11] was 46.6 µM and the kcat [11] was 1e+06 s⁻¹.
In the case of `Cc1cc(=O)oc2cc(NC(=O)[C@H](CO)NC(=O)CN)ccc12` [Gly-Ser-AMC] (H-Gly-Ser-{AMC}), the Km [9] is reported as 440 µM, the Km [10] is reported as “Not hydrolyzed” and the Km [11] is reported as “Not hydrolyzed”.
With Glucagon the Km (DP IV [1]) was 3.8 µM.
With `CC(C)[C@@H](NC(=O)[C@@H](CCCCN)NC(=O)[C@H](NC(=O)CNC(=O)[C@@H](NC(=O)[C@@H](CCC(=O)O)NC(=O)[C@@H](N)CO)[C@@H](C)O)C(C)C)C(=O)O` [H-Ser-D-Glu-Thr-Gly-D-Val-D-Lys-D-Val-OH] (H-S[dE]TG[dV][dK][dV]-OH) the “stability in biological fluids” value [6] was “not enzymatically degraded”, the “affinity of larger oligopeptides such as GIP, VIP, glucagon” value (DP IV [7]) was “considerably reduced” and the “binding and hydrolysis of small dipeptide substrates” value (DP IV [7]) was “only slightly influenced”. For the same molecule, the “improving the substrate specificity of DP IV” value (DP IV [7]; compared to control experiments without the heptapeptide) was “very effective”.
With `C[C@@H](O)[C@H](N)C(=O)N[C@@H](Cc1ccccc1)C(=O)N[C@H](C(=O)N[C@@H](CC(=O)O)C(=O)N[C@@H](CC(=O)O)C(=O)N[C@@H](Cc1ccc(O)cc1)C(=O)O)[C@@H](C)O` [TFTDDY] (H-TFTDDY-OH) the “stability in biological fluids” value [6] was “instable”.
In the case of `C[C@H](NC(=O)[C@@H](N)Cc1ccc(O)cc1)C(=O)N[C@@H](CCC(=O)O)C(=O)NCC(=O)N[C@H](C(=O)N[C@@H](Cc1ccccc1)C(=O)O)[C@@H](C)O` [GIP1-6, YAEGTF] (H-YAEGTF-OH; N-terminus and C-terminus assumed), the half-life ([12]; bioactive peptides which are substrates for DP IV, read-out: Truncation half life) is reported as less than 0.125 h.
With G^2GIP1-6: GIP-fragment analog (YAEGTF) the Truncation half life (DP IV [8]) was “no degradation” and the “hydrolysis by DP IV” value (DP IV [8]) was “not hydrolyzed”.
For `C[C@@H](O)[C@H](NC(=O)CNC(=O)[C@H](CCC(=O)O)NC(=O)[C@H](CO)NC(=O)[C@@H](N)Cc1ccc(O)cc1)C(=O)N[C@@H](Cc1ccccc1)C(=O)O` [S^2GIP1-6] (H-YSEGTF-OH; N-terminus and C-terminus assumed), the “hydrolysis by DP IV” value (DP IV [8]) was “truncated”, the half-life [12] was 1.32 h and the Ki [2] was “no inhibition”. The Ki [3] was “no inhibition” and the Ki [4] was “no inhibition”.
In the case of `C[C@H](NC(=O)[C@@H](N)Cc1ccc(O)cc1)C(=O)N[C@@H](CCC(=O)O)C(=O)N[C@@H](CO)C(=O)N[C@H](C(=O)N[C@@H](Cc1ccccc1)C(N)=O)[C@@H](C)O` [YAESTF amide] (H-YAESTF-NH2; N-terminus assumed), the Ki ([2]; read-out: Ki) is reported as 35.1 nM.
`CC(C)C[C@H](N)C(=O)N1CCSC1` [Leu-Thia-Fum] gave a Km [9] of 42.6 µM, a Ki ([2]; read-out: Ki) of 65.8 nM and a Ki ([3]; read-out: Ki) of 65.7 nM. It also gave a Ki ([4]; read-out: Ki) of 68.1 nM, a Km [13] of 59.8 µM and a Ki [14] of 72.9 nM.
[Gly]^2-glucagon: glucagon analog showed a Km (DP IV [1]) of 22 µM.
